# Reference: patent US11185531B2, “Arginine methyltransferase inhibitors and uses thereof” (Epizyme, Inc., priority 2013, dated 2021)
# Biological target: T1, human PRMT6 (Homo sapiens, UniProt Q96LA8)
# T1 construct: Flag-PRMT6-His was eluted with 200 ug/ml FLAG peptide in the same buffer; made in house; host or cells: HEK 293F cells (BacMam baculovirus, pFastBacMam)
# Experiment: PRMT6 Biochemical Assay (3H-SAM Flashplate, peptide substrate)
# Details: 30 min preincubation
# Description: Peptide representative of human histone H4 residues 36-50 was synthesized with an N-terminal linker-affinity tag motif and a C-terminal amide cap by 21st Century Biochemicals. The peptide was purified by high-performance liquid chromatography (HPLC) to greater than 95% purity and confirmed by liquid chromatography mass spectrometry (LC-MS). The sequence was Biot-Ahx-[…]-amide and contained a monomethylated lysine at position 44 (SEQ ID NO:5).
# Full-length human PRMT6 (NM_018137.2) transcript clone was amplified from an HEK 293 cDNA library, incorporating a flanking 5′ sequence encoding a FLAG tag ([…]) (SEQ ID NO:6) fused directly to Ser 2 of PRMT6 and a 3′ sequence encoding a hexa His sequence (HHHHHH) fused directly to Asp 375. The amplified gene was subcloned into pFastBacMam (Viva Biotech).
# Column was washed with 20 mM imidazole in the same buffer and Flag-PRMT6-His was eluted with 150 mM imidazole. Pooled fractions were dialysed against buffer Ni-A and further purified by anti-flag M2 affinity chromatography. Flag-PRMT6-His was eluted with 200 ug/ml FLAG peptide in the same buffer. Pooled fractions were dialysed in 20 mM Tris, 150 mM NaCl, 10% glycerol and 5 mM 3-mercaptoethanol, pH 7.8. The purity of recovered protein was 95%.
# General Procedure for PRMT6 Enzyme Assays on Peptide Substrates.
# The assays were all performed in a buffer consisting of 20 mM Bicine (pH=7.6), 1 mM TCEP, 0.005% BSG, and 0.002% Tween 20, prepared on the day of use. Compounds in 100% DMSO (1 ul) were spotted into a polypropylene 384-well V-bottom plates (Greiner) using a Platemate Plus outfitted with a 384-channel head (Thermo Scientific). DMSO (1 ul) was added to Columns 11, 12, 23, 24, rows A-H for the maximum signal control and 1 ul of SAH, a known product and inhibitor of PRMT6, was added to columns 11, 12, 23, 24, rows I-P for the minimum signal control. A cocktail (40 ul) containing the PRMT6 enzyme was added by Multidrop Combi (Thermo-Fisher). The compounds were allowed to incubate with PRMT6 for 30 min at room temperature, then a cocktail (10 ul) containing SAM and peptide was added to initiate the reaction (final volume=51 ul). The final concentrations of the components were as follows: PRMT6 was 1 nM, ^3H-SAM was 200 nM, non-radiolabeled SAM was 250 nM, peptide was 75 nM, SAH in the minimum signal control wells was 1 mM, and the DMSO concentration was 2%. The assays were stopped by the addition of non-radiolabeled SAM (10 ul) to a final concentration of 400 uM, which dilutes the ^3H-SAM to a level where its incorporation into the peptide substrate is no longer detectable. 50 ul of the reaction in the 384-well polypropylene plate was then transferred to a 384-well Flashplate and the biotinylated peptides were allowed to bind to the streptavidin surface for at least 1 hour before being washed once with 0.1% Tween20 in a Biotek ELx405 plate washer. The plates were then read in a PerkinElmer TopCount plate reader to measure the quantity of ^3H-labeled peptide bound to the Flashplate surface, measured as disintegrations per minute (dpm) or alternatively, referred to as counts per minute (cpm).
# Where dpm=disintegrations per minute, cmpd=signal in assay well, and min and max are the respective minimum and maximum signal controls.
# Where top and bottom are the normally allowed to float, but may be fixed at 100 or 0 respectively in a 3-parameter fit. The Hill Coefficient normally allowed to float but may also be fixed at 1 in a 3-parameter fit. Y is the % inhibition and X is the compound concentration.
# T1 sequence (Q96LA8 with tags, fused parts or gaps): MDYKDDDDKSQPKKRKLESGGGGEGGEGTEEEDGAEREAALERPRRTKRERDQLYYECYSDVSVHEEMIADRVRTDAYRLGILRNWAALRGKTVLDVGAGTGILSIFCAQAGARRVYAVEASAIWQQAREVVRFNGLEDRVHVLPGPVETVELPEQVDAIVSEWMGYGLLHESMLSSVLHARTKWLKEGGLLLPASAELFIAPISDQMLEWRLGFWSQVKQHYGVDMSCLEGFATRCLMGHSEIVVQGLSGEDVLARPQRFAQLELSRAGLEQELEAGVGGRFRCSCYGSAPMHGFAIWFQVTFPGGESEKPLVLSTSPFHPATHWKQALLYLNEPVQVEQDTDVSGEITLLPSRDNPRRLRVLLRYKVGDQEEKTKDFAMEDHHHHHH
row,Structure (SMILES),IC50 [nM]
1,Cc1ccc(/C=C/c2n[nH]cc2CN(C)CCN)cc1 [Compound 8],< 100
2,"CC1CCC(c2n[nH]cc2CN(C)CCN)CC1 (stereo not drawn) [Compound 37, N^1-methyl-N^1-((3-(4-methylcyclohexyl)-1H-pyrazol-4-yl)methyl)ethane-1,2-diamine]",< 100
3,CNCCN(C)Cc1c[nH]nc1/C=C/c1ccc(OC)cc1 [Compound 7],< 100
4,CN(CCN)Cc1c[nH]nc1/C=C/c1ccc(F)cc1F [Compound 13],< 100
5,CN(CCN)Cc1c[nH]nc1/C=C/c1cc(F)cc(F)c1 [Compound 15],< 100
6,CNCCN(C)Cc1c[nH]nc1C#Cc1ccc(C(C)(C)C)cc1 [Compound 2],< 100
7,"CN(CCN)Cc1c[nH]nc1CCc1ccc(F)cc1 [Compound 23, N^1-((3-(4-fluorophenethyl)-1H-pyrazol-4-yl)methyl)-N^1-methylethane-1,2-diamine]",< 100
8,CNCCN(C)Cc1c[nH]nc1C1CCN(C(=O)Cc2ccccc2)CC1 [Compound 32],< 100
9,CNCCN(C)Cc1c[nH]nc1/C=C/c1ccc(-c2ccccc2)cc1 [Compound 5],< 100
10,CN(CCN)Cc1c[nH]nc1C1CCCC1 [Compound 31],3010 to 10000
11,CN(CCN)Cc1n[nH]cc1C1CCCCC1 [Compound 33],< 100
12,CCCc1n[nH]cc1CN(C)CCN [Compound 29],101 to 1000
13,CN(CCN)Cc1c[nH]nc1C1=CCOCC1 [Compound 10],101 to 1000
14,CNCCN(C)Cc1c[nH]nc1C#Cc1ccccc1 [Compound 3],< 100
15,CN(CCN)Cc1c[nH]nc1C1CCC1 [Compound 26],101 to 1000
16,CN(CCN)Cc1c[nH]nc1/C=C/c1cccc(C(F)(F)F)c1 [Compound 16],101 to 1000
17,CN(CCN)Cc1c[nH]nc1/C=C/c1cccc(F)c1 [Compound 20],< 100
18,CNCCN(C)Cc1c[nH]nc1C1CCN(C)CC1 [Compound 41],< 100
19,COC/C=C/c1n[nH]cc1CN(C)CCN [Compound 19],101 to 1000
20,CN(CCN)Cc1c[nH]nc1/C=C/Cc1ccccc1 [Compound 24],101 to 1000

row,Structure (SMILES),IC50 [nM]
1,CN(CCN)Cc1c[nH]nc1/C=C/c1cc(C(F)(F)F)cc(C(F)(F)F)c1 [Compound 14],101 to 1000
2,CNCCN(C)Cc1c[nH]nc1C#Cc1cccc(OC)c1 [Compound 1],< 100
3,CNCCN(C)Cc1c[nH]nc1C#Cc1ccc(F)cc1 [Compound 4],< 100
4,COc1cc(/C=C/c2n[nH]cc2CN(C)CCN)cc(OC)c1 [Compound 11],< 100
5,"CC(C)Cc1n[nH]cc1CN(C)CCN [Compound 28, N^1-((3-iso-butyl-1H-pyrazol-4-yl)methyl)-N^1-methylethane-1,2-diamine]",< 100
6,CNCCN(C)Cc1c[nH]nc1/C=C/c1ccc(C(F)(F)F)cc1 [Compound 6],< 100
7,CNCCN(C)Cc1c[nH]nc1C1CCNCC1 [Compound 42],< 100
8,CN(CCN)Cc1c[nH]nc1C1CCCCC1 [Compound 22],< 100
9,CN(CCN)Cc1n[nH]cc1C1CCC(C)(C)CC1 [Compound 36],< 100
10,Cc1n[nH]cc1CN(C)CCN [Compound 30],101 to 1000
11,"CN(CCN)Cc1n[nH]cc1C1CCC(N2CCOCC2)CC1 (stereo not drawn) [Compound 44, N^1-methyl-N^1-((4-(4-morpholinocyclohexyl)-1H-pyrazol-3-yl)methyl)ethane-1,2-diamine]",101 to 1000
12,CN(CCN)Cc1c[nH]nc1/C=C/c1ccc(C(F)(F)F)cc1 [Compound 18],< 100
13,CC1CCC(c2c[nH]nc2CN(C)CCN)CC1 (stereo not drawn) [Compound 35],< 100
14,CNCCN(C)Cc1c[nH]nc1C1CCN(C(=O)C(C)C)CC1 [Compound 34],< 100
15,CC(C)c1n[nH]cc1CN(C)CCN [Compound 21],101 to 1000
16,CN(CCN)Cc1c[nH]nc1C1=CCCC1 [Compound 25],101 to 1000
17,"CN(CCN)Cc1c[nH]nc1C1CCC(C)(C)CC1 [Compound 38, N^1-((3-(4,4-dimethylcyclohexyl)-1H-pyrazol-4-yl)methyl)-N^1-methylethane-1,2-diamine]",< 100
18,COc1cccc(/C=C/c2n[nH]cc2CN(C)CCN)c1 [Compound 17],< 100
19,"CNCCN(C)Cc1c[nH]nc1C1CCN(CC(C)C)CC1 [Compound 39, N^1-((3-(1-isobutylpiperidin-4-yl)-1H-pyrazol-4-yl)methyl)-N^1,N^2-dimethylethane-1,2-diamine]",< 100
